According to ChEMBL document CHEMBL1909046, “DrugMatrix in vitro pharmacology data”:

Assays:
[1] = biological target: 5-hydroxytryptamine receptor 4 (Cavia porcellus, UniProt O70528); format: cell membranes, Dunkin-Hartley, Striatum, Membrane; note: in other assays of this panel Not Active means under 50% inhibition at 10 µM
Cannabinoid receptor 1 = Cannabinoid receptor 1 (Homo sapiens, UniProt P21554); format: cell membranes, Chem-1, Membrane; conditions: chem-1; note: in other assays of this panel Not Active means under 50% inhibition at 10 µM
[2] = DRUGMATRIX: Interleukin IL-1 radioligand binding (ligand: [125I] interleukin 1beta); format: cell membranes, Membrane; conditions: nih3t3; Not Active = under 50% inhibition at 10 µM
Melanocortin receptor 3 = Melanocortin receptor 3 (Homo sapiens, UniProt P41968); format: cell membranes, HEK293, Membrane; conditions: hek293; note: in other assays of this panel Not Active means under 50% inhibition at 10 µM
[3] = DRUGMATRIX: Phosphodiesterase PDE4 enzyme inhibition (substrate: [3H]cAMP + cAMP); conditions: u-937; Not Active = under 50% inhibition at 10 µM
[4] = biological target: 5-hydroxytryptamine receptor 1B (Rattus norvegicus, UniProt P28564); format: cell membranes, Wistar, Cerebral cortex, Membrane; note: in other assays of this panel Not Active means under 50% inhibition at 10 µM
Chain of 5-hydroxytryptamine receptor 1B (P28564 whole entry): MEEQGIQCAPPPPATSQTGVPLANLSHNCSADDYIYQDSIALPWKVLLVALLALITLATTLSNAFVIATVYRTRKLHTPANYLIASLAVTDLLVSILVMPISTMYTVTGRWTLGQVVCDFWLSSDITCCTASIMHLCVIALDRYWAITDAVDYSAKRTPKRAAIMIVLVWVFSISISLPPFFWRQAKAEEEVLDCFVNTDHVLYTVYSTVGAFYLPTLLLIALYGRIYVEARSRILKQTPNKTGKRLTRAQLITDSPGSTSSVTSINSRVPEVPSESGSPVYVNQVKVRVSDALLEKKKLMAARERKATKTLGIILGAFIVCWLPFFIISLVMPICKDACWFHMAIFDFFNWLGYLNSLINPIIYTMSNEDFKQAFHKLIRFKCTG

Chain of Cannabinoid receptor 1 (P21554 whole entry): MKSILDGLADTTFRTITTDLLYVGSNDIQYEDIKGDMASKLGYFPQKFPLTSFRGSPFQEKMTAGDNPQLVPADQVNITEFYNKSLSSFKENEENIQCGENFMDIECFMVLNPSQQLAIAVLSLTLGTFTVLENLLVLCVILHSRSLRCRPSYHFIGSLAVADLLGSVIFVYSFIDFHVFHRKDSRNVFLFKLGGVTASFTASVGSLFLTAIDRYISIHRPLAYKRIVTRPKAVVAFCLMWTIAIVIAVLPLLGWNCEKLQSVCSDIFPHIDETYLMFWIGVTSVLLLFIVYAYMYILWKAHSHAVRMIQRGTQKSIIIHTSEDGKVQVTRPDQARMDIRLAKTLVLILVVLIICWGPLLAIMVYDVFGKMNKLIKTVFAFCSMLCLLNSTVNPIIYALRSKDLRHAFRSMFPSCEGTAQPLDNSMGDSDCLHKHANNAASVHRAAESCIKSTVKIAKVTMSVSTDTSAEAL
Chain of 5-hydroxytryptamine receptor 4 (O70528 whole entry): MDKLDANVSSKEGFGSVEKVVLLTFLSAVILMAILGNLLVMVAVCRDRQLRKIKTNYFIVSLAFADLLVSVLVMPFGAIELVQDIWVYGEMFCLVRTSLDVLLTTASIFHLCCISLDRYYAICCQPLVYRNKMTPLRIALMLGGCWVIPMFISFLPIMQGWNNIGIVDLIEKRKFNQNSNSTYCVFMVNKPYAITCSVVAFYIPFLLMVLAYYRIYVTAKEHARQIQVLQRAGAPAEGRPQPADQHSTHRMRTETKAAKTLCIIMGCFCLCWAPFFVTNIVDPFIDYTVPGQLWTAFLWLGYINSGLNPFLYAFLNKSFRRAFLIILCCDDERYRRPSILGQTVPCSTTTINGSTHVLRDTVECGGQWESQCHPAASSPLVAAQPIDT
Chain of Melanocortin receptor 3 (P41968 whole entry): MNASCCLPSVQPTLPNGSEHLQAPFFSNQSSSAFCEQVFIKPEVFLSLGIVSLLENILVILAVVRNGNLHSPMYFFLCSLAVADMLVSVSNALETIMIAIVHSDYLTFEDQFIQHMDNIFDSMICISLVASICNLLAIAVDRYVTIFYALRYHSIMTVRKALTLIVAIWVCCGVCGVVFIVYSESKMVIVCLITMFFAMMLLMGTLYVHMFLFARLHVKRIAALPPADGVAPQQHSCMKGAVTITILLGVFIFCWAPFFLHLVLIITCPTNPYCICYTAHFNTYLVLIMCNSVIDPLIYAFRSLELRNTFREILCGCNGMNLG

LEAD(IV) ACETATE
Not Active: IC50 [1] | Ki [1] | IC50 (Cannabinoid receptor 1) | Ki (Cannabinoid receptor 1) | IC50 [2] | Ki [2] | IC50 (Melanocortin receptor 3) | Ki (Melanocortin receptor 3) | IC50 [3] | Ki [3] | IC50 [4] | Ki [4]
